In ChEMBL document CHEMBL3739277, “Design, synthesis, and antibacterial evaluation of novel azolylthioether quinolones as MRSA DNA intercalators” (2015):
Values after ≈ are worked out from the molar mass of the structure shown.

Key:
Type in all cases: functional
Cyberlindnera jadinii = assay: Antifungal activity against Candida utilis ATCC9950 assessed as growth inhibition incubated at 35 degC for 24 hrs by micro broth dilution method; details: Williopsis jadinii, ATCC9950, 24 h
Aspergillus flavus = assay: Antifungal activity against Aspergillus flavus ATCC204304 assessed as growth inhibition incubated at 35 degC for 24 hrs by micro broth dilution method; details: ATCC204304, 24 h
Saccharomyces cerevisiae = assay: Antifungal activity against Saccharomyces cerevisiae ATCC9763 assessed as growth inhibition incubated at 35 degC for 24 hrs by micro broth dilution method; details: ATCC9763, 24 h
Candida albicans = assay: Antifungal activity against Candida albicans ATCC10231 assessed as growth inhibition incubated at 35 degC for 24 hrs by micro broth dilution method; details: ATCC10231, 24 h
[1] = Antifungal activity against Candida mycoderma ATCC9888 assessed as growth inhibition incubated at 35 degC for 24 hrs by micro broth dilution method; details: Kregervanrija fluxuum
Micrococcus luteus = assay: Antibacterial activity against Micrococcus luteus ATCC4698 assessed as growth inhibition incubated at 37 degC for 24 hrs by micro broth dilution method; details: ATCC4698, 24 h
Staphylococcus aureus [2] = assay: Antibacterial activity against methicillin resistant Staphylococcus aureus N315 assessed as growth inhibition incubated at 37 degC for 24 hrs by micro broth dilution method; details: N315, 24 h
Staphylococcus aureus [3] = assay: Antibacterial activity against Staphylococcus aureus ATCC25923 assessed as growth inhibition incubated at 37 degC for 24 hrs by micro broth dilution method; details: ATCC25923, 24 h
Bacillus subtilis = assay: Antibacterial activity against Bacillus subtilis ATCC6633 assessed as growth inhibition incubated at 37 degC for 24 hrs by micro broth dilution method; details: ATCC6633, 24 h
Pseudomonas aeruginosa = assay: Antibacterial activity against Pseudomonas aeruginosa ATCC27853 assessed as growth inhibition incubated at 37 degC for 24 hrs by micro broth dilution method; details: ATCC27853, 24 h
Escherichia coli = assay: Antibacterial activity against Escherichia coli JM109 assessed as growth inhibition incubated at 37 degC for 24 hrs by micro broth dilution method; details: JM109, 24 h
[4] = Antibacterial activity against Eberthella typhosa ATCC14028 assessed as growth inhibition incubated at 37 degC for 24 hrs by micro broth dilution method; details: ATCC14028, 24 h
[5] = Antibacterial activity against Bacillus proteus ATCC13315 assessed as growth inhibition incubated at 37 degC for 24 hrs by micro broth dilution method; details: ATCC13315, 24 h

Row | Compound | MIC80 (Cyberlindnera jadinii) | MIC80 (Aspergillus flavus) | MIC80 (Saccharomyces cerevisiae) | MIC80 (Candida albicans) | MIC80 [1] | MIC (Micrococcus luteus) | MIC (Staphylococcus aureus [2]) | MIC (Staphylococcus aureus [3]) | MIC (Bacillus subtilis) | MIC (Pseudomonas aeruginosa) | MIC (Escherichia coli) | MIC [4] | MIC [5]
1 | OC(Cn1cncn1)(Cn1cncn1)c1ccc(F)cc1F [FLUCONAZOLE] | 8 µg/mL (≈ 26.1 µM) | 256 µg/mL (≈ 836 µM) | 16 µg/mL (≈ 52.2 µM) | 1 µg/mL (≈ 3.27 µM) | 4 µg/mL (≈ 13.1 µM) |  |  |  |  |  |  |  | 
2 | NC1CCN(c2c(F)cc3c(=O)c(C(=O)O)cn(C4CC4)c3c2Cl)C1 (stereo unspecified) [CLINAFLOXACIN] |  |  |  |  |  | 0.5 µg/mL (≈ 1.37 µM) | 1 µg/mL (≈ 2.73 µM) | 0.5 µg/mL (≈ 1.37 µM) | 0.5 µg/mL (≈ 1.37 µM) | 1 µg/mL (≈ 2.73 µM) | 1 µg/mL (≈ 2.73 µM) | 1 µg/mL (≈ 2.73 µM) | 0.5 µg/mL (≈ 1.37 µM)
3 | Sc1ncn(Cc2ccc(Cl)c(Cl)c2)n1 | 512 µg/mL (≈ 1970 µM) | 512 µg/mL (≈ 1970 µM) | 512 µg/mL (≈ 1970 µM) | 512 µg/mL (≈ 1970 µM) | 256 µg/mL (≈ 984 µM) | 256 µg/mL (≈ 984 µM) | 128 µg/mL (≈ 492 µM) | 256 µg/mL (≈ 984 µM) | 512 µg/mL (≈ 1970 µM) | 512 µg/mL (≈ 1970 µM) | 256 µg/mL (≈ 984 µM) | 512 µg/mL (≈ 1970 µM) | 512 µg/mL (≈ 1970 µM)
4 | CCn1cc(C(=O)O)c(=O)c2cc(F)c(N3CCN(CC(O)CSc4nnnn4C)CC3)cc21 (stereo unspecified) | 64 µg/mL (≈ 130 µM) | 64 µg/mL (≈ 130 µM) | 128 µg/mL (≈ 260 µM) | 32 µg/mL (≈ 65.1 µM) | 64 µg/mL (≈ 130 µM) | 64 µg/mL (≈ 130 µM) | 128 µg/mL (≈ 260 µM) | 128 µg/mL (≈ 260 µM) | 32 µg/mL (≈ 65.1 µM) | 128 µg/mL (≈ 260 µM) | 8 µg/mL (≈ 16.3 µM) | 32 µg/mL (≈ 65.1 µM) | 128 µg/mL (≈ 260 µM)
5 | O=C(O)c1cn(C2CC2)c2c(Cl)c(N3CCC(NCC4CO4)C3)c(F)cc2c1=O (stereo unspecified) | 4 µg/mL (≈ 9.48 µM) | 0.5 µg/mL (≈ 1.19 µM) | 0.25 µg/mL (≈ 0.593 µM) | 2 µg/mL (≈ 4.74 µM) | 2 µg/mL (≈ 4.74 µM) | 0.25 µg/mL (≈ 0.593 µM) |  | 0.5 µg/mL (≈ 1.19 µM) | 0.25 µg/mL (≈ 0.593 µM) | 0.5 µg/mL (≈ 1.19 µM) | 0.5 µg/mL (≈ 1.19 µM) |  | 0.25 µg/mL (≈ 0.593 µM)
6 | Cn1nnnc1SCC(O)CNC1CCN(c2c(F)cc3c(=O)c(C(=O)O)cn(C4CC4)c3c2Cl)C1 (stereo unspecified) | 128 µg/mL (≈ 238 µM) | 1 µg/mL (≈ 1.86 µM) | 1 µg/mL (≈ 1.86 µM) | 2 µg/mL (≈ 3.72 µM) | 1 µg/mL (≈ 1.86 µM) | 1 µg/mL (≈ 1.86 µM) | 2 µg/mL (≈ 3.72 µM) | 2 µg/mL (≈ 3.72 µM) | 1 µg/mL (≈ 1.86 µM) | 1 µg/mL (≈ 1.86 µM) | 1 µg/mL (≈ 1.86 µM) | 1 µg/mL (≈ 1.86 µM) | 1 µg/mL (≈ 1.86 µM)
7 | O=C(O)c1cn(C2CC2)c2cc(N3CCN(CC(O)Cn4cnc(S)n4)CC3)c(F)cc2c1=O (stereo unspecified) | 128 µg/mL (≈ 262 µM) | 64 µg/mL (≈ 131 µM) | 64 µg/mL (≈ 131 µM) | 8 µg/mL (≈ 16.4 µM) | 32 µg/mL (≈ 65.5 µM) | 16 µg/mL (≈ 32.8 µM) | 16 µg/mL (≈ 32.8 µM) | 2 µg/mL (≈ 4.09 µM) | 4 µg/mL (≈ 8.19 µM) | 4 µg/mL (≈ 8.19 µM) | 8 µg/mL (≈ 16.4 µM) | 1 µg/mL (≈ 2.05 µM) | 4 µg/mL (≈ 8.19 µM)
8 | O=C(O)c1cn(C2CC2)c2cc(N3CCN(CC4CO4)CC3)c(F)cc2c1=O (stereo unspecified) | 2 µg/mL (≈ 5.16 µM) | 1 µg/mL (≈ 2.58 µM) | 1 µg/mL (≈ 2.58 µM) | 2 µg/mL (≈ 5.16 µM) | 1 µg/mL (≈ 2.58 µM) | 2 µg/mL (≈ 5.16 µM) | 1 µg/mL (≈ 2.58 µM) | 4 µg/mL (≈ 10.3 µM) | 8 µg/mL (≈ 20.6 µM) | 2 µg/mL (≈ 5.16 µM) | 1 µg/mL (≈ 2.58 µM) | 2 µg/mL (≈ 5.16 µM) | 4 µg/mL (≈ 10.3 µM)
9 | O=C(O)c1cn(C2CC2)c2c(Cl)c(N3CCC(NCC(O)CSc4ncn(Cc5ccc(Cl)c(Cl)c5)n4)C3)c(F)cc2c1=O (stereo unspecified) | 8 µg/mL (≈ 11.7 µM) | 8 µg/mL (≈ 11.7 µM) | 16 µg/mL (≈ 23.5 µM) | 0.5 µg/mL (≈ 0.733 µM) | 1 µg/mL (≈ 1.47 µM) | 0.5 µg/mL (≈ 0.733 µM) | 0.5 µg/mL (≈ 0.733 µM) | 0.5 µg/mL (≈ 0.733 µM) | 0.5 µg/mL (≈ 0.733 µM) | 0.5 µg/mL (≈ 0.733 µM) | 1 µg/mL (≈ 1.47 µM) | 0.5 µg/mL (≈ 0.733 µM) | 0.5 µg/mL (≈ 0.733 µM)
10 | CCn1cc(C(=O)O)c(=O)c2cc(F)c(N3CCN(CC(O)CSc4ncn(Cc5ccc(Cl)c(Cl)c5)n4)CC3)cc21 (stereo unspecified) | 128 µg/mL (≈ 201 µM) | 16 µg/mL (≈ 25.2 µM) | 32 µg/mL (≈ 50.4 µM) | 64 µg/mL (≈ 101 µM) | 128 µg/mL (≈ 201 µM) | 32 µg/mL (≈ 50.4 µM) | 8 µg/mL (≈ 12.6 µM) | 4 µg/mL (≈ 6.29 µM) | 128 µg/mL (≈ 201 µM) | 64 µg/mL (≈ 101 µM) | 16 µg/mL (≈ 25.2 µM) | 64 µg/mL (≈ 101 µM) | 8 µg/mL (≈ 12.6 µM)
11 | O=C(O)c1cn(C2CC2)c2cc(N3CCN(CC(O)CSc4ncn(Cc5ccc(Cl)cc5Cl)n4)CC3)c(F)cc2c1=O (stereo unspecified) | 4 µg/mL (≈ 6.18 µM) | 16 µg/mL (≈ 24.7 µM) | 64 µg/mL (≈ 98.8 µM) | 32 µg/mL (≈ 49.4 µM) | 16 µg/mL (≈ 24.7 µM) | 2 µg/mL (≈ 3.09 µM) | 1 µg/mL (≈ 1.54 µM) | 1 µg/mL (≈ 1.54 µM) | 2 µg/mL (≈ 3.09 µM) | 4 µg/mL (≈ 6.18 µM) | 2 µg/mL (≈ 3.09 µM) | 1 µg/mL (≈ 1.54 µM) | 2 µg/mL (≈ 3.09 µM)
12 | CCn1cc(C(=O)O)c(=O)c2cc(F)c(N3CCNCC3)cc21 [NORFLOXACIN] |  |  |  |  |  | 2 µg/mL (≈ 6.26 µM) | 2 µg/mL (≈ 6.26 µM) | 2 µg/mL (≈ 6.26 µM) | 1 µg/mL (≈ 3.13 µM) | 4 µg/mL (≈ 12.5 µM) | 2 µg/mL (≈ 6.26 µM) | 1 µg/mL (≈ 3.13 µM) | 8 µg/mL (≈ 25.1 µM)
